From US10053485B2, “Cytotoxic agents that preferentially target leukemia inhibitory factor (LIF) for the treatment of malignancies and as new contraceptive agents” (Evestra, Inc., priority 2015, dated 2018)

What was measured:
[1] = tested on: T47D (ER+ PR+ Breast Cancer); experiment: Short term (72 h) cytotoxicity assay; type: cell-based; conditions: Homo sapiens
[2] = tested on: MCF-7 (ER+ Breast Cancer); experiment: Short term (72 h) cytotoxicity assay; type: cell-based; conditions: Homo sapiens, MCF7; MCF-7, 72 h cytotoxicity
T-47D = experiment: NCI-60 screen, Breast Cancer panel; type: cell-based; conditions: Homo sapiens, T47D, 48 h
HS 578T = experiment: NCI-60 screen, Breast Cancer panel; type: cell-based; conditions: Homo sapiens, 48 h
SF-268 = experiment: NCI-60 screen, CNS Cancer panel; type: cell-based; conditions: Homo sapiens, SF-268, 48 h
HT29 = experiment: NCI-60 screen, Colon Cancer panel; type: cell-based; conditions: Homo sapiens, HT-29, 48 h
MDA-MB-435 = experiment: NCI-60 screen, Melanoma panel; type: cell-based; conditions: Homo sapiens, MDA-MB-435, 48 h
[3] = tested on: Patient derived tumor (melanoma): p53, LIF, MDM2, pSTAT3, Ki67; experiment: Immunohistochemistry analysis of patient derived tumor; type: cell-based, human; conditions: 10 nM and 1 uM for 5 days, FIG. 10
Method: Patient derived tumor (melanoma) was treated with the compounds at 10 nM and 1 uM for 5 days in RPMI medium and harvested on day 6 using established protocol and immunohistochemistry was performed for different antibodies including p53, LIF, MDM2, pSTAT3, Ki67.

SW-620 = experiment: NCI-60 screen, Colon Cancer panel; type: cell-based; conditions: Homo sapiens, SW-620, 48 h
SN12C = experiment: NCI-60 screen, Renal Cancer panel; type: cell-based; conditions: Homo sapiens, 48 h
SK-OV-3 = experiment: NCI-60 screen, Ovarian Cancer panel; type: cell-based; conditions: Homo sapiens, SK-OV-3, 48 h
CAKI-1 = experiment: NCI-60 screen, Renal Cancer panel; type: cell-based; conditions: Homo sapiens, CAKI-1, 48 h
K-562 = experiment: NCI-60 screen, Leukemia panel; type: cell-based; conditions: Homo sapiens, K562, 48 h
NCI-H226 = experiment: NCI-60 screen, Non-Small Cell Lung Cancer panel; type: cell-based; conditions: Homo sapiens, NCI-H226, 48 h, read-out: GI50 (log10GI50) (converted)
[4] = tested on: IGROV1 (Ovarian) Xenograft; experiment: Tumor xenograft study, IGROV1; type: in vivo, mice
Method: Uniform suspensions of human breast cancer MDA-MB-231 and human ovarian cancer IGROV1 cells (2×10^6) in 100 μL (0.02 carboxymethyl cellulose in phosphate buffered saline) were injected subcutaneously into the right and left flanks of 4- to 5-week-old female athymic nude mice (Charles River Laboratories). After 10 days, when the tumor […] reaches 100 mm^3, the mice were randomly allocated to 3 groups of each containing 6 animals. […] All drug was suspended in PBS followed by sonication (15 seconds with an intermittent interval of 5 seconds) for 1 minute. Tumors were allowed to reach palpability before drug intervention. Tumor size was measured every 3 days using digital Vernier Calipers and tumor volume was calculated using the ellipsoid formula [D×(d2)]/2, where D is the large diameter of the tumor and d represents the small diameter. On day 31, the mice were euthanized and tumors were harvested for protein and gene expression studies. […] FIG. 6B depicts a graph of tumor volume vs. time for the administration of EC300 at 2.5 mg/kg twice weekly in the MDA-MB-231 (TNBC) Xenograft. […] FIG. 7 depicts a graph of tumor volume vs. time for the administration of EC300 at 5 mg/kg 5 days per week in the IGROV1 (Ovarian) Xenograft. […] STAT3 phosphorylation is reduced in tumors that underwent treatment compared to control which is an indication of LIF downstream target.

786-0 = experiment: NCI-60 screen, Renal Cancer panel; type: cell-based; conditions: Homo sapiens, 786-0, 48 h
OVCAR-8 = experiment: NCI-60 screen, Ovarian Cancer panel; type: cell-based; conditions: Homo sapiens, OVCAR-8, 48 h
UACC-257 = experiment: NCI-60 screen, Melanoma panel; type: cell-based; conditions: Homo sapiens, UACC-257, 48 h
PC-3 = experiment: NCI-60 screen, Prostate Cancer panel; type: cell-based; conditions: Homo sapiens, PC-3, 48 h
[5] = tested on: unmodified MCF-7 human breast cancer cells; experiment: LIF specificity assay, unmodified cells; type: cell-based; conditions: Homo sapiens, MCF7, cytotoxicity
NCI-H460 = experiment: NCI-60 screen, Non-Small Cell Lung Cancer panel; type: cell-based; conditions: Homo sapiens, NCI-H460, 48 h
U251 = experiment: NCI-60 screen, CNS Cancer panel; type: cell-based; conditions: Homo sapiens, U-251, 48 h
[6] = read-out: GI50 (log10GI50) (converted)
[7] = read-out: LC50 (log10LC50) (converted)

SMILES: C#CC(F)(F)[C@]1(O)CCC2C3CCC4=CC(=O)CCC4=C3C(c3ccc(C4CC4)cc3)C[C@@]21C (stereo partly drawn) [EC330, 17α-(1,1-difluoro-2-propyn-1-yl)-17β-hydroxy-11β-[4-p-(cyclopropyl)phenyl]estra-4,9-dien-3-one]
- IC50 [1]: 80 nM
- IC50 [2]: 100 nM
- GI50 (T-47D; [6]): < 10 nM
- CC50 (T-47D; [7]): > 100 µM
- GI50 (HS 578T; [6]): 2290 nM
- CC50 (HS 578T; [7]): > 100 µM
- GI50 (SF-268; [6]): 126 nM
- CC50 (SF-268; [7]): 1550 nM
- GI50 (HT29; [6]): < 10 nM
- CC50 (HT29; [7]): 692 nM
- GI50 (MDA-MB-435; [6]): 1860 nM
- CC50 (MDA-MB-435; [7]): > 100 µM
- apoptosis, p53, MDM2, LIF mediated STAT3 phosphorylation (immunohistochemistry) [3]: induce apoptosis and restore p53 by inhibiting MDM2 and LIF mediated STAT3 phosphorylation
- GI50 (SW-620; [6]): 2510 nM
- CC50 (SW-620; [7]): > 100 µM
- GI50 (SN12C; [6]): 3.8 µM
- CC50 (SN12C; [7]): > 100 µM
- GI50 (SK-OV-3; [6]): 117 nM
- CC50 (SK-OV-3; [7]): 661 nM
- GI50 (CAKI-1; [6]): 29.5 nM
- CC50 (CAKI-1; [7]): > 100 µM
- GI50 (K-562; [6]): 2190 nM
- CC50 (K-562; [7]): > 100 µM
- GI50 (NCI-H226): 2630 nM
- antitumor activity ([4]; 5 mg/kg (5 days per week), 4 weeks, intraperitoneally): potent antitumor activity
- apoptosis in xenograft tumors ([4]; IGR-OV1 xenograft tumors, FIG. 8): induced apoptosis dose dependently
- tumor growth ([4]; ovarian cancer model): significantly reduced
- STAT3 phosphorylation in tumors ([4]; treated vs. control): reduced
- GI50 (786-0; [6]): < 10 nM
- CC50 (786-0; [7]): < 10 nM
- GI50 (OVCAR-8; [6]): 1550 nM
- CC50 (OVCAR-8; [7]): > 100 µM
- GI50 (UACC-257; [6]): 7.08 µM
- CC50 (UACC-257; [7]): > 100 µM
- GI50 (PC-3; [6]): 513 nM
- CC50 (PC-3; [7]): > 100 µM
- IC50 [5]: 250 nM
- GI50 (NCI-H460; [6]): 2690 nM
- CC50 (NCI-H460; [7]): > 100 µM
- GI50 (U251; [6]): 151 nM
- CC50 (U251; [7]): 5.37 µM
